Each structure is given as a SMILES string. Calls of active or inactive are those of the source. No cut-off for these calls is given here. Where only a bound is given, the exact number is not on record here.

The values below come from ChEMBL document CHEMBL3091429, “Structure-activity relationships of retro-dihydrochalcones isolated from Tacca sp” (J Nat Prod, 2013).

Assay [1] concerns the target Tubulin (Sus scrofa) (UniProt P02554+P02550). The experiment in a line: Inhibition of purified porcine tubulin polymerization 100 uM by spectrophotometry. In kind it is protein assay.
Assay [2] concerns HeLa. The experiment in a line: Antiproliferative activity against human HeLa cells by SRB assay. It is filed as functional, cell-based. On the technique in general: Sulforhodamine B stains cellular protein and so reports cell mass.
Assay [3] deals with PC-3. The assay is described as follows: Antiproliferative activity against human PC3 cells by SRB assay. It is filed as functional, cell-based.
For assay [4], the system named is A549. The experiment in a line: Antiproliferative activity against human A549 cells by SRB assay. It is filed as functional, cell-based.

Chain of Tubulin (Sus scrofa) (P02550 whole entry, looked up): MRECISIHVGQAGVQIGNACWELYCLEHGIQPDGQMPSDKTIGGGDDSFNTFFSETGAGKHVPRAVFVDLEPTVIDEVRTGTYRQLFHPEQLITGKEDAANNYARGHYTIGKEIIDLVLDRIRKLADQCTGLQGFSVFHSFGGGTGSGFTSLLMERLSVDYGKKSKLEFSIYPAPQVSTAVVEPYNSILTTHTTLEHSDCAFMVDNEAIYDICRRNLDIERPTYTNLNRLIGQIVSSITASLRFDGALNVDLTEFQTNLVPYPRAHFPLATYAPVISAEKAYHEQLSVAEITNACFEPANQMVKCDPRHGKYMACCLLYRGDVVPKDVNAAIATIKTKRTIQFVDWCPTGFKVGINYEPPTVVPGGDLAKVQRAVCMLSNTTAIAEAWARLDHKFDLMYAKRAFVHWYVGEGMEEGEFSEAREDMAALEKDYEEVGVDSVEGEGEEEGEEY
Chain of Tubulin (Sus scrofa) (P02554 whole entry, looked up): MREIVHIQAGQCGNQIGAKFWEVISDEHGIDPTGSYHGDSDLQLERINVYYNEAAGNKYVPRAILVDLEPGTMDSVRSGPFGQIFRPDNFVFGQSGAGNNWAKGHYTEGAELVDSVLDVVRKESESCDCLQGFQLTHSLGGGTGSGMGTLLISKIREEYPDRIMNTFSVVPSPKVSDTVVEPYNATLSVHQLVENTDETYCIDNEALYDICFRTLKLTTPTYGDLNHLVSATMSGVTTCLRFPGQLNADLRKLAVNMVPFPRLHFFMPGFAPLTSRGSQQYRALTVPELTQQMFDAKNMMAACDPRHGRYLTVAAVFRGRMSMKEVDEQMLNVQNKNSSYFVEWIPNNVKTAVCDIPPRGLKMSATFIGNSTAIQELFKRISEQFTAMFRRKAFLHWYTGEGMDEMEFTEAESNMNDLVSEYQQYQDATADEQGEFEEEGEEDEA

In general, inhibition refers to the percentage by which the read-out fell short of the control. `COC1=CC(=O)C(CCC(=O)c2ccc(OC)c(OC)c2)=C(OC)C1=O`: the inhibition result in assay [1] was “inactive”.

In general, IC50 refers to the concentration needed to halve the response being measured. High values mean weaker potency, low ones greater potency. As for `COc1ccc(C(=O)CCc2c(OC)cc(OC)c(OC)c2OC)cc1OC`, the half-maximal inhibitory concentration (IC50) in assay [2], in assay [3] and in assay [4] was > 50 µM throughout. Further, the inhibition result in assay [1] is “inactive”.

Turning to `COc1cc(OC)c(CCC(O)c2ccc3c(c2)OCO3)c(OC)c1` (configuration not stated), the concentration for half-maximal inhibition (IC50) in assay [2], in assay [3] and in assay [4] was > 50 µM throughout. For the same compound, the inhibition result in assay [1] was “Active”.

For the compound `COc1cc(OC)c(CCC(=O)c2ccc(OC)c(O)c2)c(OC)c1`, the inhibition result in assay [1] was “Active”.

As to `COc1cc(OC)c(CCC(=O)c2ccc(O)c(OC)c2)c(OC)c1`, the concentration for half-maximal inhibition (IC50) in assay [2] was 28.9 µM; in assay [3], > 50 µM; in assay [4] it was 40.3 µM. For the same compound, the inhibition in assay [1] was found to be 10%.

For the compound `COc1cc(O)c(CCC(=O)c2ccc(O)c(OC)c2)c(OC)c1`, the half-maximal inhibitory concentration (IC50) in assay [2], in assay [3] and in assay [4] was > 50 µM in each case. The inhibition entry in assay [1] is “Active”.

On to `COC1=CC(=O)C(CCC(=O)c2ccc3c(c2)OCO3)=C(OC)C1=O`, for which the IC50 in assay [2] was determined as 8.8 µM; in assay [3], 5 µM; in assay [4] it was 8.3 µM. The inhibition in assay [1] was 40%.
